This note sets out measurements from patent US11236086B2, “Substituted pyrrolopyridines as inhibitors of activin receptor-like kinase” (BLUEPRINT MEDICINES CORPORATION, priority 2017, dated 2022).

The target in this test is T1, ALK2R206H (mutant ALK2, N-terminally tagged with GST) (Homo sapiens, UniProt Q04771, R206H).
T1 construct: purchased Carna Bioscience or ThermoFisher 09-148 or PV6232
T1 sequence (Q04771 21-509 R206H): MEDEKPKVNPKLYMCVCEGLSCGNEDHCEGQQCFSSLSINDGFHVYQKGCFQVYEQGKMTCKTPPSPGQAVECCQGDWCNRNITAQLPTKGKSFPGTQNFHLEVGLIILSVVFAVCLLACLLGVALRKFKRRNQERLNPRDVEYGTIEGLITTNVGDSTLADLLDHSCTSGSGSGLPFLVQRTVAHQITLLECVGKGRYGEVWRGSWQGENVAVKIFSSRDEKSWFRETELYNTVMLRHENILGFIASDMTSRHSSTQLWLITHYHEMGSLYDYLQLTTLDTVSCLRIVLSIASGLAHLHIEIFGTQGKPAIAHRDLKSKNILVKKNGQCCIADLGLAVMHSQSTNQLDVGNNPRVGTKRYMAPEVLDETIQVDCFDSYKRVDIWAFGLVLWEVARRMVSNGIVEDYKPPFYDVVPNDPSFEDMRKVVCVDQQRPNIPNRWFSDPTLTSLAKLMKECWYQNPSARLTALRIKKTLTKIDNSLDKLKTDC
Briefly: ALK binding assay (LANTHASCREEN TR-FRET competitive binding, displacement of Kinase Tracer 178). To be noted: read-out: Binding Assay (IC50 class). The protocol:
Example 10 ALK Binding Assays
Binding assays were conducted using the LANTHASCREEN® technology (ThermoFisher Scientific). LANTHASCREEN® is a competitive binding, displacement assay where the assumed steady state occupancy of the binding site is measured using a time-resolved, fluorescence energy transfer (TR-FRET) readout between a fluorescent tracer and Europium (Eu)-tagged antibody specific for the kinase or expression tag (e.g., GST) of interest. Displacement of the tracer by a compound of the disclosure reduces, and is directly proportional to, the TR-FRET between the tracer and the antibody. Tracer was used at a concentration equal to or near to its Kd for the kinase. The Eu-tagged antibody was typically used in excess to ensure sampling of all competent protein capable of binding the tracer.
For these assays, a mutant ALK2 was used that was N-terminally tagged with GST (ALK2R206H Carna Bioscience (09-148) or ALK2R206H ThermoFisher (PV6232)); a Eu-tagged anti-GST antibody (ThermoFisher) and Kinase Tracer 178 (ThermoFisher).
In all cases, the kinase (2-5 nM) was mixed with Eu-tagged antibody (4-10 nM) mix and tracer (50 nM) were incubated with test compound titrations prepared in 100% DMSO (1% DMSO final) for 30 minutes at room temperature. All reagents and compounds were dissolved in Kinase Buffer A (ThermoFisher) to achieve the final concentration. The plates were read on a PerkinElmer EnVision® multilabel plate reader or a BioTek Synergy Neo plate reader, and the assay signal was represented as a ratio of the TR-FRET emission (λex 330 nm, λ^em […] and λ^em 665 nm). This readout was normalized to 0% and 100% inhibited control wells, plotted against inhibitor concentration, and fitted to a 4-parameter log dose response curve.
The results of this assay are shown in Table 3 in the column labelled “Binding Assay” wherein “A” represents an IC50 of less than or equal to 10 nM; “B” represents an IC50 of greater than 10 nM and less than or equal to 50 nM; and “C” represents an IC50 of greater than 50 nM. Blank values in the table indicate that the particular compound was not tested in this assay.
As for `O=C(C1CC1)N1CCN(c2ccnc3[nH]c(-c4ccccc4)cc23)CC1` [Compound 3], the concentration for half-maximal inhibition (IC50) was 10 to 50 nM.

With `O=C(C1CC1)N1CCN(c2ccnc3[nH]c(-c4cccnc4)cc23)CC1` [Compound 4], the IC50 was 10 to 50 nM.

As for `Cn1cc(-c2cc3c(N4CCN(C(=O)CC#N)CC4)ccnc3[nH]2)cn1` [Compound 5], the concentration for half-maximal inhibition (IC50) was 10 to 50 nM.

Regarding `CCOC(=O)N1CCN(c2ccnc3[nH]c(-c4ncccn4)cc23)CC1` [Compound 9], the half-maximal inhibitory concentration (IC50) is not above 10 nM.

With `CC(C)C(=O)N1CCN(c2ccnc3[nH]c(-c4cnn(C)c4)cc23)CC1` [Compound 10], the half-inhibitory concentration (IC50) lay within 10 to 50 nM.

In the case of `Cc1ccccc1-c1cc2c(N3CCN(C(=O)C4CC4)CC3)ccnc2[nH]1` [Compound 14], the 50% inhibitory concentration (IC50) was more than 50 nM.

For the compound `Cc1cccc(-c2cc3c(N4CCN(C(=O)C5CC5)CC4)ccnc3[nH]2)c1` [Compound 15], the half-maximal inhibitory concentration (IC50) was in the range of 10 to 50 nM.

On to `Cc1ccc(-c2cc3c(N4CCN(C(=O)C5CC5)CC4)ccnc3[nH]2)cc1` [Compound 16], for which the half-inhibitory concentration (IC50) was in the range of 10 to 50 nM.

As to `O=C(C1CC1)N1CCN(c2ccnc3[nH]c(-c4cccc(F)c4)cc23)CC1` [Compound 17], the IC50 is 10 to 50 nM.

Consider `O=C(C1CC1)N1CCN(c2ccnc3[nH]c(-c4ccccc4F)cc23)CC1` [Compound 18], for which the IC50 was in the range of 10 to 50 nM.

In the case of `Cn1cc(-c2cc3c(N4CCN(C(=O)C5CCC5)CC4)ccnc3[nH]2)cn1` [Compound 20], the half-maximal inhibitory concentration (IC50) is not above 10 nM.

Take `Cc1c(-c2cc3c(N4CCN(C(=O)C5CC5)CC4)ccnc3[nH]2)cnn1C` [Compound 22]: the IC50 was in the range of 10 to 50 nM.

With `CCOC(=O)N1CCN(c2ccnc3[nH]c(-c4cc(C)ccn4)cc23)CC1` [Compound 25], the IC50 was not above 10 nM.

On to `CCOC(=O)N1CCN(c2ccnc3[nH]c(-c4ccc(C)nc4)cc23)CC1` [Compound 27], for which the IC50 is not above 10 nM.

Take `CCOC(=O)N1CCN(c2ccnc3[nH]c(-c4cnc(C)nc4)cc23)CC1` [Compound 31]: the concentration for half-maximal inhibition (IC50) was in the range of 10 to 50 nM.

`O=C(OC1COC1)N1CCN(c2ccnc3[nH]c(-c4cn[nH]c4)cc23)CC1` [Compound 36]: the 50% inhibitory concentration (IC50) is not above 10 nM.

As for `CCOC(=O)N1CCN(c2ccnc3[nH]c(-c4nn(C)cc4C)cc23)CC1` [Compound 42], the IC50 was 10 to 50 nM.

Take `CCOCC(=O)N1CCN(c2ccnc3[nH]c(-c4cnn(C)c4)cc23)CC1` [Compound 43]: the IC50 was more than 50 nM.

`N#Cc1cccc(-c2cc3c(N4CCN(C(=O)C5CC5)CC4)ccnc3[nH]2)c1` [Compound 44]: the half-inhibitory concentration (IC50) fell in the range of 10 to 50 nM.

On to `CCOC(=O)N1CCN(c2ccnc3[nH]c(-c4cc(C)ns4)cc23)CC1` [Compound 47], for which the IC50 is not above 10 nM.

Turning to `O=C(C1CC1)N1CCN(c2ccnc3[nH]c(-c4ccc(CO)cc4)cc23)CC1` [Compound 57], the IC50 is not above 10 nM.

Consider `COc1ccccc1-c1cc2c(N3CCN(C(=O)C4CC4)CC3)ccnc2[nH]1` [Compound 58], for which the IC50 is more than 50 nM.

`CCOC(=O)N1CCN(c2ccnc3[nH]c(-c4ncc(C#N)cn4)cc23)CC1` [Compound 61]: the IC50 was not above 10 nM.

For `COc1ccc(-c2cc3c(N4CCN(C(=O)C5CC5)CC4)ccnc3[nH]2)cn1` [Compound 62], the IC50 was 10 to 50 nM.

Regarding `Cc1ccc(-c2cc3c(N4CCN(C(=O)C5CC5)CC4)ccnc3[nH]2)c(F)c1` [Compound 63], the IC50 lay in the range of 10 to 50 nM.

As to `CCOC(=O)N1CCN(c2ccnc3[nH]c(-c4nn(C)cc4C#N)cc23)CC1` [Compound 72], the IC50 lay in the range of 10 to 50 nM.

Take `O=C(OC1COC1)N1CCN(c2ccnc3[nH]c(-c4ncccn4)cc23)CC1` [Compound 73]: the IC50 was not above 10 nM.

Turning to `O=C(OC1COC1)N1CCN(c2ccnc3[nH]c(-c4cnccn4)cc23)CC1` [Compound 74], the concentration for half-maximal inhibition (IC50) lay within 10 to 50 nM.

For the compound `Cn1cc(-c2cc3c(N4CCN(C(=O)[C@H]5CCOC5)CC4)ccnc3[nH]2)cn1` [Compound 78], the 50% inhibitory concentration (IC50) was not above 10 nM.

For the compound `Cn1cc(-c2cc3c(N4CCN(C(=O)[C@@H]5CCOC5)CC4)ccnc3[nH]2)cn1` [Compound 79], the IC50 was not above 10 nM.

`Cn1cc(-c2cc3c(N4CCN(C(=O)OCC5CC5)CC4)ccnc3[nH]2)cn1` [Compound 80]: the IC50 is not above 10 nM.

As for `Cn1cc(-c2cc3c(N4CCN(C(=O)[C@@H]5CCCO5)CC4)ccnc3[nH]2)cn1` [Compound 81], the half-maximal inhibitory concentration (IC50) fell in the range of 10 to 50 nM.

`CCC(C)CC(=O)N1CCN(c2ccnc3[nH]c(-c4cnn(C)c4)cc23)CC1` (centres unmarked) [Compound 83]: the half-maximal inhibitory concentration (IC50) lay in the range of 10 to 50 nM.

For `O=C(C1CC1)N1CCN(c2ccnc3[nH]c(-c4ccc(Cl)cc4)cc23)CC1` [Compound 84], the IC50 lay in the range of 10 to 50 nM.

On to `CCOC(=O)N1CCN(c2ccnc3[nH]c(-c4cccc(OC)n4)cc23)CC1` [Compound 85], for which the IC50 was not above 10 nM.

On to `O=C(C1CC1)N1CCN(c2ccnc3[nH]c(-c4ccc(F)cc4F)cc23)CC1` [Compound 87], for which the IC50 was in the range of 10 to 50 nM.

Take `O=C(C1CC1)N1CCN(c2ccnc3[nH]c(-c4cc(F)cc(F)c4)cc23)CC1` [Compound 88]: the IC50 was not above 10 nM.

Turning to `Cc1[nH]ncc1-c1cc2c(N3CCN(C(=O)OC4COC4)CC3)ccnc2[nH]1` [Compound 92], the concentration for half-maximal inhibition (IC50) is not above 10 nM.

Consider `Cn1cc(-c2cc3c(N4CCN(C(=O)[C@H]5C[C@H](F)C5)CC4)ccnc3[nH]2)cn1` [Compound 94], for which the 50% inhibitory concentration (IC50) was not above 10 nM.

Regarding `CCOC(=O)N1CCN(c2ccnc3[nH]c(-c4scnc4C#N)cc23)CC1` [Compound 95], the IC50 is not above 10 nM.

In the case of `CCOC(=O)N1CCN(c2ccnc3[nH]c(-c4cnn(C)c4)c(CC)c23)CC1` [Compound 99], the IC50 was not above 10 nM.

Turning to `Cn1cc(-c2cc3c(N4CCN(C(=O)C(C)(C)CO)CC4)ccnc3[nH]2)cn1` [Compound 101], the half-inhibitory concentration (IC50) was 10 to 50 nM.

Regarding `Cn1cnc(-c2cc3c(N4CCN(C(=O)OC5COC5)CC4)ccnc3[nH]2)n1` [Compound 106], the half-maximal inhibitory concentration (IC50) lay in the range of 10 to 50 nM.

As to `Cc1coc(-c2cc3c(N4CCN(C(=O)OC5COC5)CC4)ccnc3[nH]2)n1` [Compound 107], the IC50 lay within 10 to 50 nM.

As for `Cc1cnc(-c2cc3c(N4CCN(C(=O)OC5COC5)CC4)ccnc3[nH]2)o1` [Compound 108], the IC50 fell in the range of 10 to 50 nM.

With `Cc1nnc(-c2cc3c(N4CCN(C(=O)OC5COC5)CC4)ccnc3[nH]2)o1` [Compound 110], the IC50 was in the range of 10 to 50 nM.

Turning to `O=C(C1CC1)N1CCN(c2ccnc3[nH]c(-c4ccc(C5CC5)cc4)cc23)CC1` [Compound 119], the IC50 is more than 50 nM.

In the case of `COc1ccc(-c2cc3c(N4CCN(C(=O)C5CC5)CC4)ccnc3[nH]2)c(F)c1` [Compound 138], the IC50 is not above 10 nM.

In the case of `Cn1cc(-c2cc3c(N4CCN(C(=O)OCCC5CC5)CC4)ccnc3[nH]2)cn1` [Compound 141], the half-inhibitory concentration (IC50) is not above 10 nM.

Turning to `Cn1cc(-c2cc3c(N4CCN(C(=O)OCC5(C)CC5)CC4)ccnc3[nH]2)cn1` [Compound 142], the IC50 is not above 10 nM.

Consider `Cn1cc(-c2cc3c(N4CCN(C(=O)OCC5CCC5)CC4)ccnc3[nH]2)cn1` [Compound 143], for which the IC50 is not above 10 nM.

For the compound `Cn1cc(-c2cc3c(N4CCN(C(=O)O[C@@H]5CCOC5)CC4)ccnc3[nH]2)cn1` [Compound 154], the IC50 is not above 10 nM.

`Cc1c(-c2cc3c(N4CCN(C(=O)OC5COC5)CC4)ccnc3[nH]2)cnn1C` [Compound 156]: the IC50 is not above 10 nM.

As to `Cc1n[nH]c(C)c1-c1cc2c(N3CCN(C(=O)OC4COC4)CC3)ccnc2[nH]1` [Compound 157], the IC50 is more than 50 nM.

As to `Cc1nc(-c2cc3c(N4CCN(C(=O)OC5COC5)CC4)ccnc3[nH]2)oc1C` [Compound 158], the IC50 is not above 10 nM.

As for `COCCCOC(=O)N1CCN(c2ccnc3[nH]c(-c4cnn(C)c4)cc23)CC1` [Compound 163], the IC50 was not above 10 nM.

Turning to `CCOCCOC(=O)N1CCN(c2ccnc3[nH]c(-c4cnn(C)c4)cc23)CC1` [Compound 164], the concentration for half-maximal inhibition (IC50) was not above 10 nM.

With `COCC(C)OC(=O)N1CCN(c2ccnc3[nH]c(-c4cnn(C)c4)cc23)CC1` (centres unmarked) [Compound 165], the half-maximal inhibitory concentration (IC50) lay within 10 to 50 nM.

Consider `CCOC(=O)N1CCN(c2ccnc3[nH]c(-c4cnn(C)c4COC)cc23)CC1` [Compound 166], for which the IC50 is 10 to 50 nM.
